In PubChem BioAssay (NCI):
Where “and” joins values, the source holds several entries; their conditions need not be identical. Equal values may be shown once.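 Following 48 hours of exposure in 96-well plates, responses at five concentrations were used to interpolate endpoints linearly. Here, GI50 denotes the concentration required for 50% inhibition of growth. The concentration for full growth arrest is given as TGI.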

Experiments:
Experiment in all cases: DTP human tumour cell line panel, 48 h
A549 NSCLC = test system: A549 NSCLC
CCRF-CEM leukemia = test system: CCRF-CEM leukemia
OVCAR-3 ovarian = test system: OVCAR-3 ovarian
RPMI-8226 leukemia = test system: RPMI-8226 leukemia
RXF 393 renal = test system: RXF 393 renal
SK-MEL-28 melanoma = test system: SK-MEL-28 melanoma
SK-MEL-5 melanoma = test system: SK-MEL-5 melanoma
SK-OV-3 ovarian = test system: SK-OV-3 ovarian
U251 CNS = test system: U251 CNS
UACC-62 melanoma = test system: UACC-62 melanoma

Row | SMILES | GI50 (A549 NSCLC) [µM] | TGI (A549 NSCLC) | GI50 (CCRF-CEM leukemia) [µM] | TGI (CCRF-CEM leukemia) | GI50 (OVCAR-3 ovarian) [µM] | TGI (OVCAR-3 ovarian) | GI50 (RPMI-8226 leukemia) [µM] | TGI (RPMI-8226 leukemia) | GI50 (RXF 393 renal) [µM] | TGI (RXF 393 renal) | GI50 (SK-MEL-28 melanoma) [µM] | TGI (SK-MEL-28 melanoma) | GI50 (SK-MEL-5 melanoma) [µM] | TGI (SK-MEL-5 melanoma) | GI50 (SK-OV-3 ovarian) [µM] | TGI (SK-OV-3 ovarian) | GI50 (U251 CNS) [µM] | TGI (U251 CNS) | GI50 (UACC-62 melanoma) [µM] | TGI (UACC-62 melanoma) [µM]
1 | C[C@@H]1CCC2[C@@H](C)[C@H](OC(=O)CCC(=O)NCCNC(=O)Cc3cc(=O)oc4cc(N(C)C)ccc34)O[C@@H]3O[C@]4(C)CC[C@@H]1C23OO4 (stereo partly specified) | 4.52 | 23.1 µM | 1.57 | > 75.7 µM | 0.629 | 18.1 µM | 0.378 | 32.9 µM | 3.45 | 43.2 µM | 17.4 | > 100 µM | 1.48 | > 39.3 µM | 29 | > 100 µM | 1.33 | 19.1 µM | 0.711 | > 91
2 | COc1cc2c(cc1-c1c(C)noc1C)ncc1[nH]c(=O)n([C@H](C)c3ccccn3)c12 | 6.17 | > 100 µM | 1.03 | > 100 µM | 1.05 | > 47.9 µM | 0.124 | 3.54 µM | 3.3 | > 32.1 µM | 0.695 | > 90.7 µM | 2.77 | > 44 µM | 0.6 | > 50.1 µM | 8.82 | > 100 µM | 0.145 | > 87.2
3 | O=C1C(Cl)=C(Nc2ccc3c(c2NC2=C(Cl)C(=O)c4ccccc4C2=O)C(=O)c2ccccc2C3=O)C(=O)c2ccccc21 | 1.95 | 4.61 µM | 2.48 | 24.7 µM | 1.78 | 7.03 µM | 1.66 | 9.37 µM | 2.97 | 9.79 µM | 2.87 | 8.61 µM | 0.386 | 1.47 µM | 6.52 | 20.6 µM | 2.58 | 9.38 µM | 1.3 | 2.9
4 | COc1ccc(-c2cc3nccn3c(Nc3ncccc3C(N)=O)n2)cc1OC | 3 | > 100 µM | 0.827 | > 100 µM | > 47 | > 100 µM | 2.75 | > 100 µM | 0.613 | 18.4 µM | > 100 | > 100 µM | 4.87 | > 100 µM | > 100 | > 100 µM | > 100 | > 100 µM | 0.742 | > 100
5 | CC(=O)[CH-]C(=O)c1ccccc1.CC(=O)[CH-]C(=O)c1ccccc1.CC[O-].O=C1C=C([O-])C(=O)c2ccccc21.[Ti+4] | 46.3 | > 100 µM | 21 | > 100 µM | 42.6 | > 100 µM | 16.9 | 85.8 µM | > 100 | > 100 µM | > 100 | > 100 µM | 14 | > 100 µM | 70.8 | > 100 µM | 32.4 | > 100 µM | 38.8 | > 100
6 | CN(C)CCC(=O)NCc1c2nc3ccccc3nc2n2ccccc12 | > 100 | > 100 µM | 25.7 | 78.8 µM | > 100 | > 100 µM | 18.5 | > 100 µM | 54.8 | > 100 µM | 83.9 | > 100 µM | 16.8 | 52.8 µM | > 100 | > 100 µM | > 100 | > 100 µM | > 100 | > 100
7 | CC(=O)OC1C/C(C)=C/[C@H](O)CC(C)/C=C/[C@@]2(C)CCC(C(C)(C)O)C12 (stereo partly specified) |  | > 100 µM |  | > 100 µM |  | > 100 µM |  | > 100 µM |  | > 100 µM |  | > 100 µM |  | > 100 µM |  | > 100 µM |  | > 100 µM |  | > 100
8 | O=C(Nc1ccccc1)OCc1nc2c([nH]1)C(=O)C=CC2=O |  | 31.9 µM |  | 13.1 µM |  | 30.8 µM |  | 51.1 µM |  | 23 µM |  | 30.5 µM |  | 27.3 µM |  | 29.3 µM |  | 25.5 µM |  | 36.9
9 | Cc1ccc2oc(=O)cc(C3c4ccc([nH]4)C(c4cc(=O)oc5ccc(C)cc45)c4ccc([nH]4)C(c4cc(=O)oc5ccc(C)cc45)c4ccc([nH]4)C(c4cc(=O)oc5ccc(C)cc45)c4ccc3[nH]4)c2c1 (stereo unspecified) | 0.063 | 1.54 µM | 0.0359 | > 100 µM | 0.0225 | 0.0533 µM | 0.0516 | 0.578 µM | 0.0254 | 0.0774 µM | 0.075 | 2.98 µM | 0.032 | 0.127 µM | 0.0247 | 0.0687 µM | 0.0369 | 1.27 µM | 0.0324 | 0.8
10 | O=C1C(Nc2cccc(O)c2)=C(Sc2ccc(Cl)cc2)C(=O)N1Cc1ccccc1 | 5.38 | 35.9 µM | 4.08 | 34.8 µM | 10.6 | 28.2 µM | 2.23 | 7.42 µM | 3.9 | 21.2 µM | 11 | 40.9 µM | 8.44 | 24.7 µM | 12.6 | 30.6 µM | 10.3 | 29.4 µM | 10.4 | 27.2
11 | O=C(Nc1ccc([N+](=O)[O-])cc1)c1cc2ccccc2cc1O | 0.454 | > 21.5 µM | 0.754 | > 100 µM | 0.397 | 15.8 µM | 0.291 | 0.727 µM | 0.34 | 1.26 µM | 0.448 | > 36.5 µM | 0.221 | 0.534 µM | 0.384 | 15.7 µM | 0.36 | 13.1 µM | 0.336 | 1.45
12 | CN(C(=O)C1CC1)C1C2CN3CCC(O2)C13 (stereo unspecified) |  | > 100 µM |  | > 100 µM |  | > 100 µM |  | > 100 µM |  | > 100 µM |  | > 100 µM |  | > 100 µM |  | > 100 µM |  | > 100 µM |  | > 100
13 | COc1cc(C(=C2SCCS2)c2nccc3cc(OC)c(OC)cc23)c([N+](=O)[O-])cc1OC |  | > 100 µM |  | > 100 µM |  | > 100 µM |  | > 100 µM |  | > 100 µM |  | > 100 µM |  | > 100 µM |  | > 100 µM |  | > 100 µM |  | > 100
14 | CCCCc1oc2ccccc2c1C(=O)c1cc(I)c(OCCN(CC)CC)c(I)c1 | 3.72 | 15.8 µM and 70.3 µM | 1.82 | 4.35 µM and 12 µM | 3.69 | 14.7 µM and 16.9 µM | 1.92 | 4.91 µM and 9.09 µM | 1.26 | 2.97 µM and 8.79 µM | 1.91 | 4 µM and 10.1 µM |  | 2.76 µM | 2.69 | 6.41 µM and 20.1 µM | 1.57 | 3 µM and 7.73 µM |  | 3.83
15 | CCCCCCCCCCCCCCCCCCOCC1(COP(=O)([O-])OCC[N+](C)(C)C)CCCO1 (stereo unspecified) |  | 20.6 µM |  | 11.6 µM |  | 15.7 µM |  | 8.55 µM |  | 1.89 µM |  | 32.2 µM |  | 27.7 µM |  | 27.7 µM |  | 7.03 µM |  | 21.4
16 | c1ccc([P+](CCC[P+](c2ccccc2)(c2ccccc2)c2ccccc2)(c2ccccc2)c2ccccc2)cc1 | 14.5 | > 100 µM | 7.26 | > 100 µM | 4.41 | 83.7 µM and 35.5 µM | 1.27 | > 100 µM and 10.1 µM |  | > 100 µM | 11.2 | > 100 µM | 6.8 | 74.1 µM and 38.7 µM | 69.1 | > 100 µM |  | > 100 µM |  | > 100
17 | NC(=O)C12CCC1C1CCCCC12N1CCOCC1 (stereo unspecified) |  | > 100 µM |  | > 100 µM |  | > 100 µM |  | > 100 µM |  | > 100 µM |  | > 100 µM |  | > 100 µM |  | > 100 µM |  | > 100 µM |  | > 100
18 | C[n+]1ccc2[nH]c3ccccc3c2c1 |  | > 100 µM |  | > 100 µM |  | > 100 µM |  | > 100 µM |  | > 100 µM |  | > 100 µM |  | > 100 µM |  | > 100 µM |  | > 100 µM |  | > 100
19 | C#CCOc1cccc(Nc2ncnc3c2ncn3C2CCN(C(=O)CCl)C2)c1 (stereo unspecified) | > 100 | > 100 µM | 4.18 | 26.3 µM | 17.2 | 31.4 µM | 21 | 44.2 µM | 17.1 | 36.6 µM | 23 | 53.9 µM | 17.2 | 34.2 µM | > 100 | > 100 µM | 18.1 | 35.1 µM | 18.1 | 35.4
20 | O=C(Nn1c2c(sc1=NC1CC1)C(=O)c1ccccc1C2=O)c1cc2ccc1CCc1ccc(cc1)CC2 | 2.42 | 6.07 µM | 2.53 | > 100 µM | 1.53 | 4.42 µM | 1.86 | 6.47 µM | 1.85 | 4.75 µM | 2.4 | 5.22 µM | 1.43 | 2.76 µM | 7.03 | 21.4 µM | 2.41 | 11.1 µM | 1.62 | 3.52
21 | COc1ccc(Cn2cc3c(c2-c2ccccc2)CCc2cncnc2-3)cc1 | 3.55 | 14.1 µM | 3.99 | 18.3 µM | 3.65 | 12.5 µM | 2.69 | 8.62 µM | 3.56 | 9.82 µM | 8.71 | 21.6 µM | 3.72 | 14.2 µM | 9.04 | 31.2 µM | 5.47 | 18 µM | 3.47 | 16.5
22 | C=CC1=C(C)C(Cc2[nH]c(/C=c3\[nH]/c(=C/C4=NC(=O)C(C)/C4=C\C)c(C)c3CCC(=O)O)c(CCC(=O)OC)c2C)NC1=O (stereo unspecified) | 40.2 | > 100 µM | 31.2 | > 100 µM | 20.1 | 39.4 µM | 23.9 | 59.8 µM | 21.4 | 44 µM | 14.8 | 31.9 µM | 19.9 | 37.4 µM | 27.9 | 78.2 µM | 22.5 | 52.9 µM | 18.7 | 35.9
23 | COc1cc(/C=N/O)nc(-c2ccccn2)c1 |  | > 100 µM | 0.207 | > 33.2 µM | 0.324 | > 100 µM |  | > 100 µM | 0.723 | 14.8 µM | 0.476 | > 100 µM |  | 1.31 µM |  | > 100 µM | 0.374 | > 100 µM | 0.325 | 2.7
24 | Clc1ccc2c(NCCN3CCN(c4ccnc(N5CCCC5)n4)CC3)ccnc2c1 | 4.23 | 16.8 µM | 3.65 | 32.3 µM | 5.3 | 21.2 µM | 2.48 | 7.08 µM | 1.42 | 3.93 µM | 1.77 | 3.66 µM | 1.79 | 3.19 µM | 11.8 | 34.2 µM | 3.09 | 10.1 µM | 2.13 | 4.51
25 | Cc1[nH]ccc2cc3nc4ccccc4c3cc12 | 2.5 | 12.2 µM | 1.5 | 10 µM | 3.04 | 10.7 µM | 1.53 | 3.87 µM | 1.74 | 3.91 µM | 10.7 | 23.9 µM | 3.28 | 13.6 µM | 5.42 | 18.1 µM | 2.82 | 12.4 µM | 3.52 | 12.3
26 | c1cc(-c2cnn3nc(N4CCOCC4)ccc23)nc(NC2CC2)n1 | 7.87 | > 25 µM | 4.95 | > 25 µM | 8.17 | > 25 µM | 6.71 | > 25 µM | 4.58 | 10.8 µM | 6.64 | > 23.7 µM | 5.76 | 16.7 µM | 14.6 | > 25 µM | 6.97 | > 25 µM | 7.76 | > 25
